Here are results for one molecule from patent US12042472B2 (pHase Pharmaceuticals LLC, priority 2017, dated 2024).

SMILES strings stand for the structures.

A short description of this data set: in vivo. As to conditions: for concentration at 0.033 h: Day 1, hour 0.033, LLQ 1 ng/mL. As to the method: Using a standard, by weight, randomization procedure, 21 male animals (weighing 3.25 to 3.73 kg at randomization), from a total of 36 male experimentally naïve New Zealand White Hra:(NZW)SPF albino rabbits (approximately 6 to 7 months of age), were assigned to the study as presented in Table 5.
To induce an anaphylactic syndrome, animals in Groups 1 to 4 were administered horse serum (0.2μ sterile filtered) via subcutaneous (“SC”) injection at dose volume of 2 mL/animal, followed two days later by an intravenous (“IV”) injection at a dose volume of 2 mL/animal.
Forty-one to 44 days following the beginning of the induction period, the animals were sedated by administration of 2 to 3 mg/kg via IM injection of acepromazine, 0.02 mg/kg via IM injection of buprenorphine and sevoflurane via inhalation.
Following induction of anesthesia, all animals were placed in dorsal recumbency position and an incision was made to locate the right or left femoral artery. An arterial sheath was introduced and advanced into the isolated artery and used to monitor blood pressure. Additionally, an off midline cervical neck incision was made to locate and isolate the left or right external jugular vein for collection of blood and for emergency drug administration, as needed.
Following induction of anesthesia and catheter placement, single or repeated challenge doses of 0.5 to 2 mL of filtered horse serum were administered intravenously to each animal in Groups 1 to 4.
Prior to tablet administration, the mouth of the animal was wet with 0.5 mL of tap water and the mouth was held shut for 15 to 30 seconds to help dissolve the tablet. For IM administration, the injections were made in the right rear flank of each animal.
Each 50 μL aliquot of standard, QC sample, and study sample was mixed with 200 μL of working internal standard solution (25 ng/mL in acetonitrile/methanol (50/50, v/v)). The sample was centrifuged, and a 200 μL aliquot of the resulting supernatant was transferred to a clean 96-well plate. The sample was evaporated and reconstituted with […] of water/formic acid (100/0.1, v/v). An aliquot was injected onto an LC-MS/MS system for analysis.
The liquid chromatography system used an ACE 5 C18 column, 50×2.1 mm (5 μm particle size) with an isocratic flow consisting of water/formic acid (100/0.1, v/v) and methanol/formic acid (100/0.05, v/v) at a flow rate of 400 μL/minute. The analyte and internal standard were detected using an SCIEX API 5000 triple quadrupole LC-MS/MS system equipped with an ESI (TurboIonSpray®) ionization source operated in the positive ion mode.
The lower limit of quantitation was 1 ng/ml and a linear 1/x2 weighting regression analysis was used.
Concentrations less than the lower limit of quantitation (LLOQ, <1.00 ng/mL) were reported as and set to zero. For each animal, the following pharmacokinetic parameters were determined: maximum observed plasma concentration (Cmax), time of maximum observed plasma concentration (Tmax), and area under the plasma concentration-time curve (AUC).
The formulation ratio was calculated using the following formula: Formulation Ratio=Mean AUC0-60 min Buccal Citrate÷Mean AUC0-60 min Buccal No citrate. The Induced Anaphylaxis to Non-induced anaphylaxis ratio was calculated using the following formula: Induced Anaphylaxis:Non-Induced Anaphylaxis=Mean AUC0-60 min Induced Anaphylaxis IM÷Mean AUC0-60 min Non-induced Anaphylaxis IM. Relative bioavailability (expressed as a percent) was calculated using the following formula: Relative Bioavailability=[AUC0-60 min/DoseBuccal (citrate and/or no citrate)]÷[AUC0-60 min/DoseIntramuscular (induced and/or non-induced)]*100.

Take `CNC[C@H](O)c1ccc(O)c(O)c1` [Epinephrine]: for the setting “Group 7, dose 0.3 mg, subject 701, male, Day 1, hour 0.333, LLQ 2 ng/mL”, the “Concentration (ng/mL), plasma epinephrine” value is “BLQ”. For the same molecule, the concentration at 0 h worked out at 2.48 ng/mL (male, New Zealand White Hra:(NZW)SPF, rabbit, plasma, intramuscular, 0.3 mg, Concentration (ng/mL), plasma epinephrine, Group 7, dose 0.3 mg, subject 701, male, Day 1, hour 0, LLQ 2 ng/mL); 1.92 ng/mL (male, New Zealand White Hra:(NZW)SPF, rabbit, plasma, intramuscular, 0.3 mg, Concentration (ng/mL), plasma epinephrine, Group 7, dose 0.3 mg, subject 703, male, Day 1, hour 0, LLQ 1 ng/mL); 2.29 ng/mL (male, New Zealand White Hra:(NZW)SPF, rabbit, plasma, intramuscular, 0.3 mg, Concentration (ng/mL), plasma epinephrine, Subject Group 3, dose 0.3 mg, male rabbits, Day 1, Hour 0). Besides, the concentration at 0.033 h was 2.75 ng/mL (male, New Zealand White Hra:(NZW)SPF, rabbit, plasma, intramuscular, 0.3 mg, Concentration (ng/mL), plasma epinephrine, Group 7, dose 0.3 mg, subject 701, male) and 8.06 ng/mL (male, New Zealand White Hra:(NZW)SPF, rabbit, plasma, intramuscular, 0.3 mg, Concentration (ng/mL), plasma epinephrine, Group 7, dose 0.3 mg, subject 703, male). Besides, the concentration at 0.083 h reads like this: (male, New Zealand White Hra:(NZW)SPF, rabbit, plasma, intramuscular, 0.3 mg, Concentration (ng/mL), plasma epinephrine, Group 7, dose 0.3 mg, subject 701, male, Day 1, hour 0.083, LLQ 2 ng/mL) 4.32 ng/mL; (male, New Zealand White Hra:(NZW)SPF, rabbit, plasma, intramuscular, 0.3 mg, Concentration (ng/mL), plasma epinephrine, Group 7, dose 0.3 mg, subject 703, male, Day 1, hour 0.083, LLQ 1 ng/mL) 6.6 ng/mL. Moreover, the concentration at 0.125 h by setting is: (male, New Zealand White Hra:(NZW)SPF, rabbit, plasma, intramuscular, 0.3 mg, Concentration (ng/mL), plasma epinephrine, Group 7, dose 0.3 mg, subject 701, male, Day 1, hour 0.125, LLQ 2 ng/mL) 5.73 ng/mL; (male, New Zealand White Hra:(NZW)SPF, rabbit, plasma, intramuscular, 0.3 mg, Concentration (ng/mL), plasma epinephrine, Group 7, dose 0.3 mg, subject 703, male, Day 1, hour 0.125, LLQ 1 ng/mL) 3.53 ng/mL. Besides, the concentration at 0.167 h was 4.76 ng/mL (male, New Zealand White Hra:(NZW)SPF, rabbit, plasma, intramuscular, 0.3 mg, Concentration (ng/mL), plasma epinephrine, Group 7, dose 0.3 mg, subject 701, male, Day 1, hour 0.167, LLQ 2 ng/mL) and 2.32 ng/mL (male, New Zealand White Hra:(NZW)SPF, rabbit, plasma, intramuscular, 0.3 mg, Concentration (ng/mL), plasma epinephrine, Group 7, dose 0.3 mg, subject 703, male, Day 1, hour 0.167, LLQ 1 ng/mL). Further, the concentration at 0.25 h is, setting by setting: (male, New Zealand White Hra:(NZW)SPF, rabbit, plasma, intramuscular, 0.3 mg, Concentration (ng/mL), plasma epinephrine, Group 7, dose 0.3 mg, subject 701, male, Day 1, hour 0.25, LLQ 2 ng/mL) 2.44 ng/mL; (male, New Zealand White Hra:(NZW)SPF, rabbit, plasma, intramuscular, 0.3 mg, Concentration (ng/mL), plasma epinephrine, Group 7, dose 0.3 mg, subject 703, male, Day 1, hour 0.25, LLQ 1 ng/mL) 3.5 ng/mL. The concentration at 0.5 h was 2.06 ng/mL (male, New Zealand White Hra:(NZW)SPF, rabbit, plasma, intramuscular, 0.3 mg, Concentration (ng/mL), plasma epinephrine, Group 7, dose 0.3 mg, subject 701, male, Day 1, hour 0.5, LLQ 2 ng/mL) and 2.86 ng/mL (male, New Zealand White Hra:(NZW)SPF, rabbit, plasma, intramuscular, 0.3 mg, Concentration (ng/mL), plasma epinephrine, Group 7, dose 0.3 mg, subject 703, male, Day 1, hour 0.5, LLQ 1 ng/mL). The concentration at 0.75 h is, setting by setting: (male, New Zealand White Hra:(NZW)SPF, rabbit, plasma, intramuscular, 0.3 mg, Concentration (ng/mL), plasma epinephrine, Group 7, dose 0.3 mg, subject 701, male, Day 1, hour 0.75, LLQ 2 ng/mL) 2.84 ng/mL; (male, New Zealand White Hra:(NZW)SPF, rabbit, plasma, intramuscular, 0.3 mg, Concentration (ng/mL), plasma epinephrine, Group 7, dose 0.3 mg, subject 703, male, Day 1, hour 0.75, LLQ 1 ng/mL) 5.36 ng/mL. The concentration at 1 h turned out to be 3.1 ng/mL (male, New Zealand White Hra:(NZW)SPF, rabbit, plasma, intramuscular, 0.3 mg, Concentration (ng/mL), plasma epinephrine, Group 7, dose 0.3 mg, subject 701, male, Day 1, hour 1, LLQ 2 ng/mL); 5.17 ng/mL (male, New Zealand White Hra:(NZW)SPF, rabbit, plasma, intramuscular, 0.3 mg, Concentration (ng/mL), plasma epinephrine, Group 7, dose 0.3 mg, subject 703, male, Day 1, hour 1, LLQ 1 ng/mL); 10.6 ng/mL (male, New Zealand White Hra:(NZW)SPF, rabbit, plasma, other: sublingual/buccal tablet, 35 mg, Concentration (ng/mL), plasma epinephrine, Group 2, dose 35 mg, subject 306, male, Day 1, hour 1, LLQ 2 ng/mL). Under “male, New Zealand White Hra:(NZW)SPF, rabbit, plasma, intramuscular, 0.3 mg, Concentration (ng/mL), plasma epinephrine, Group 7, dose 0.3 mg, subject 703, male, Day 1, hour 0.333, LLQ 1 ng/mL”, this molecule returned a concentration at 0.333 h of 3.78 ng/mL.
